Read-outs that look alike come from different tables or passages of the source.
Format: physicochemical
Procedure: An aqueous solution containing the following components was made:
10 mg/ml of adenosine 5′-triphosphate disodium salt (anhydrous) (18.15 mM)
1 mg/ml of glycine (13.32 mM)
Sodium hydroxide (sufficient to adjust pH to 9.2-9.3)
Water sufficient to result in the above concentrations of adenosine 5′-triphosphate disodium salt (anhydrous), glycine, and 36 mg/ml of Na2HPO4.7H2O.
Below (in Table 2) are shown the relative amounts of ADP in the solution aliquots at the various time points. The data shown are concentrations of ADP as a percentage of the concentrations of ATP in the solution aliquots. The pH of the 72 month time point sample was 8.8.

## Nc1ncnc2c1ncn2[C@@H]1O[C@H](COP(=O)([O-])OP(=O)([O-])OP(=O)(O)O)[C@@H](O)[C@H]1O.[Na+].[Na+] [ATP, adenosine 5′-triphosphate disodium salt (anhydrous)]
0 months storage (immediately after making), 10 mg/ml ATP disodium, 1 mg/ml glycine, 36 mg/ml Na2HPO4.7H2O, pH 9.2-9.3
  Relative amount of ADP ([ADP]/[ATP] × 100): 0.35%
1 month storage at about 4° C. to about 8° C., same solution
  Relative amount of ADP ([ADP]/[ATP] × 100): 0.42%
3 months storage at about 4° C. to about 8° C., same solution
  Relative amount of ADP ([ADP]/[ATP] × 100): 0.48%
6 months storage at about 4° C. to about 8° C., same solution
  Relative amount of ADP ([ADP]/[ATP] × 100): 0.57%
12 months storage at about 4° C. to about 8° C., same solution
  Relative amount of ADP ([ADP]/[ATP] × 100): 0.72%
24 months storage at about 4° C. to about 8° C., same solution
  Relative amount of ADP ([ADP]/[ATP] × 100): 1.15%
36 months storage at about 4° C. to about 8° C., same solution
  Relative amount of ADP ([ADP]/[ATP] × 100): 1.4%
72 month time point sample, initial pH 9.2-9.3
  pH of the solution after storage: 8.8
72 months (6 years) storage at about 4° C. to about 8° C., same solution
  Relative amount of ADP ([ADP]/[ATP] × 100): 2.9%
Alkaline solution
  Stability of alkaline solution of ATP (duration): stable for at least six years
All time points 0 to 72 months, about 4° C. to 8° C., HPLC
  Presence of other ATP degradation (hydrolysis) products (AMP and adenosine): significant levels of neither were detectable at any of the time points

From patent US20100222294A1, “Formulations of ATP and Analogs of ATP” (priority 2009, published 2010)
